Ends that are not written are not given here.
Legend:
strain containing NDM5b = assay: checkerboard assay (FICI), peptide and penicillin; assay type: cell-based, E. coli
Excerpt: (§1) FIGS. 4A-4K. […] IV—Intravenous, IP—Intraperitoneal, SC—Subcutaneously. The data shown is from a single experiment with 4 animals per group. […] (ns—non significant, #—P>0.05, *—P≤0.05, ***—P≤0.01, ****—P≤0.001). (FIG. 4G) FICI plot as in FIG. 2, for the E. coli strains indicated and the combination of penicillin and the TEM3.2 peptide. […] (FIG. 4J) Same as FIG. 4H for peptide BGAL. (FIG. 4K) Same as FIG. 4H for peptide P33.
(§2) As we wondered about the generality of our peptide design approach, we set out to design a peptide to inactivate a structurally unrelated beta-lactamase. To this end we turned to the Ambler class B beta-lactamase NDM-1 that confers resistance to many beta-lactam antibiotics, including carbapenems, and strains carrying this enzyme was soon dubbed ‘superbugs’ that are only partially sensitive to colistin and tigecycline^49. This enzyme was first isolated from a patient in 200850, by 2010 could be detected in clinical isolates throughout the UK and India^51 and by 2015 was detected in over 70 countries worldwide^52.
(§3) For the analysis of the synergy between the peptides with other antibiotics, a checkerboard assay was performed. Referring to the MICs of the selected peptides, checkerboard assay was designed to define their FICIs (Fractional Inhibitory Concentration Index) in combinations against different clinical isolates^62,63. Briefly, a total volume of 100 μL of Mueller-Hinton broth was distributed into each well of the 96-well plates. The first compound (peptide) of the combination was serially diluted vertically (128, 64, 32, 16, 8, 4, 2, 0 μg/mL) while the other drug (Beta-lactam or Kanamycin) was diluted horizontally in 96 well plate (from 3200 to 3 μg/mL). The total volume of each microtiter well was inoculated with 100 μL of MHB containing 1×10^6 CFU/mL bacteria. The plates were incubated at 37° C. for 24 h under aerobic conditions without shaking. Calculation of the FICI is used to analyze the results of the checkerboard assay by estimating the degree of synergistic effect. FICI is calculated as the sum of the individual fractional inhibitory concentrations (FICs) for each drug (where MIC A and MIC B denote the MIC of each drug alone, and MIC AA+B and MIC BA+B denote the concentrations of A and B in the drug combination). FICI=(MIC AA+B/MIC A)+(MIC BA+B/MIC B). With FICI≤0.5, the combination of antibiotics considered as a synergistic effect, 0.5<FICI≤1 indicates additivity, FICI>1 indicates indifference.

strain containing NDM5a = assay: checkerboard assay (FICI), peptide and penicillin; assay type: cell-based, E. coli
Excerpt: as §1, §2, §3

strain containing TEM-1 = assay: checkerboard assay (FICI), peptide and penicillin; assay type: cell-based, E. coli; details: strain TEM-1
Excerpt: as §1, §2, §3

E. coli SHV-11 = assay: checkerboard assay (FICI), peptide versus penicillin G; assay type: cell-based; details: strain with SHV-11; FICI below 0.5 = synergy
Excerpt: (§4) FIGS. 2A-2M. (FIG. 2A) TEM mutations and their effects on stability (total energy) as predicted by FoldX. […] Dashed line indicates a total energy difference of 0.5 kcal/mol, the FoldX cut-off above which mutations are considered to be destabilizing. (FIG. 2B) Barplot mapping mutations in (FIG. 2A) to the TEM sequence and indicating occurrence. […] The bar heights correspond to the number of times a mutation occurs across different TEM variants (right-hand y-axis). The color coding is identical to that in (FIG. 2A). Red line indicates the TANGO scores (indicated on the left-hand y-axis), with peaks corresponding to APRs. (FIG. 2C) Mapping of mutations in (FIG. 2A) and (FIG. 2B) to the TEM structure (pdb 1xpb). Protein surface is shown in gray, color coding of mutations is identical to (FIG. 2A) and (FIG. 2B). (FIGS. 2D, 2E, and 2F) Temperature-dependent evolution of the Right-Angle Light Scattering (RALS) intensity during a temperature ramp, similar as in FIG. 1F for key mutants of TEM1, namely TEM-10 (FIG. 2D), TEM-30 (FIG. 2E) and TEM-155 (FIG. 2F). Experiments were shown in triplicate, single repeat is shown. (FIG. 2G) Schematic representation of the structure of the peptides. APR—Aggregation Prone Region, R—Arginine. (FIG. 2H) Ribbon representation of the superposition of the crystal structures of TEM (green, pdb id 1bt5) and SHV (blue, pdb id 1shv). The catalytic site of the beta-lactamase activity is indicated and location of APR3 is shown in red. (FIG. 2I) TANGO aggregation score and alignment of APR3 in TEM and SHV. (FIG. 2J) Fractional Inhibitory Concentration Index determination of 5 peptides versus penicillin on E. coli TEM-104. […] FICI values below 0.5 indicate synergy. Values between 0.5 and 1.0 indicate additivity and values greater than 1 indicate indifference between the combined substances. (FIG. 2K) Same as J for E. coli SHV-11. (FIG. 2L) Same as J for a kanamycin resistant E. coli strain. (FIG. 2M) FICI values for the TEM3.2 peptide on a range of E. coli strains.
(§5) Moreover, the core sequence of peptide TEM3.0 also occurs in the structurally related SHV β-lactamase ([…]). Although the C-terminal extension residues H and N have been replaced with physicochemically similar R and Q, respectively (FIG. 2H). […] To quantify the synergy between these four peptides and penicillin G, we performed a so-called checkerboard assay, which allows to compare the activity of two test compounds co-incubated (here peptide and a beta-lactam antibiotic), to their individual activities in isolation. The result from the assay is quantified as the Fractional Inhibitory Concentration Index (FICI), and it is generally accepted that values below 0.5 indicate synergistic effects between the compounds. As a control, we generated a peptide using the same design, but based on a previously identified APR from the β-galactosidase enzyme (BGAL)^16 from E. coli (APR=SVIIWSL, peptide sequence=[…]) that has a MIC value>100 μg/mL on E. coli strain UZ_TEM104. We evaluated the synergy of the peptides with penicillin G in clinical E. coli isolates carrying the TEM ([…]) or SHV enzymes ([…]). […] As a further control, we also performed a checkerboard assay with an E. coli strain that was resistant to the aminoglycoside kanamycin and observed no synergy between this unrelated antibiotic and our peptides (FIG. 2L), in line with the notion that we are inhibiting a beta-lactamase but not the aminoglycoside degrading enzyme. […] The list of strains included some that harbored only TEM or SHV, but others contained additional Ambler Class A (CTX-M or […]) or Class B (VIM and NDM) beta-lactamases. […] In contrast, the presence of the NDM-type […], that does have a high affinity for Ampicillin and that is completely distinct in sequence and structure from TEM and SHV, seemed to completely prevent the effect of the peptide on the beta-lactam sensitivity of the strains in which it occurred (see also further). […]

E. coli TEM-104 = assay: as above; assay type: cell-based; details: strain with TEM; FICI below 0.5 = synergy
Excerpt: as §4, §5

Sequence | synergy with penicillin (FICI) (strain containing NDM5b) | synergy with penicillin (FICI) (strain containing NDM5a) | synergy with penicillin (FICI) (strain containing TEM-1) | synergy with penicillin G (FICI) (E. coli SHV-11) | synergy with penicillin G (FICI) (E. coli TEM-104)
RTAQILNWRRPRTAQILNWRR (NDM1-1) | synergy | synergy | not in a strain containing TEM-1 | – | –
RLAAALMLRRPRAQILNWIRR (NDM1-2) | synergy | synergy | not in a strain containing TEM-1 | – | –
RSVIIWSLGRRPRSVIIWSLGRR [BGAL] | neither showed synergy | neither showed synergy | neither showed synergy | no synergy | no synergy

Source: US20240165196A1, “Beta-Lactamase Inhibitors” (VIB VZW, priority 2021, published 2024)
